Source: patent US5556859A, “N-(4-pyrimidinyl)amide pesticides” (DowElanco, priority 1994, dated 1996)

Experiments:
[1] = tested on: two spotted spider mite (Tetranychus urticae); test: whole plant or invertebrate; settings: 72 h, read-out: percent mortality, TSSM
[2] = tested on: beet armyworm (Spodoptera exiqua); test: whole plant or invertebrate; settings: 144 h, read-out: percent mortality, BAW
[3] = tested on: Southern corn rootworm (Diabrotica undecimpuctata howardi Barber); test: whole plant or invertebrate; settings: in Zea mays, soil, read-out: percent mortality, SCRW
[4] = tested on: tobacco budworm (Heliothis virescens); test: Activity against tobacco budworm (TBW); assay type: in vivo; settings: 144 h, read-out: percent mortality, TBW
Description: In conducting evaluations of insecticidal activity, each test compound was formulated as a 400 ppm solution, and this solution was then diluted with water to give lesser concentrations. The 400 ppm solution was prepared by combining 19.2 mL of 0.05% solution of Tween 20 (polyoxyethylene (20) sorbitan monolaurate) in water with a solution of 8 mg of the compound in 0.8 mL of acetone/EtOH (9/1).
Activity against tobacco budworm (Heliothis virescens) was evaluated as follows. A general purpose lepidoptera artificial diet was diluted to half strength with a 5% non nutritive agar. 8 mL of this diet material was dispensed into each one ounce diet cup. One hour prior to treatment 18 to 20 eggs were dispensed onto the diet surface. The cups were then sprayed with formulated material through a flat-fan nozzle. The test was run using concentrations of 400 ppm and 50 ppm. Treated cups were air dried prior to sealing with plastic caps. The cups were held for 6 days at room temperature. Activity was then rated based on the total number of live and dead larvae, and on the size of live larvae.

[5] = tested on: cotton aphid (Aphis gossypii); test: whole plant or invertebrate; settings: 72 h, read-out: percent mortality, CA
[6] = tested on: peanut root knot nematode (Meloidogyne arenaria); test: whole plant or invertebrate; settings: in Arachis hypogaea, read-out: percent mortality, RKN
[7] = tested on: German cockroach (Blattella germanicus); test: whole plant or invertebrate; settings: 240 h, read-out: percent mortality, GECR

Compound `CCc1nccc(NC(=O)Cc2ccc(Oc3ncc(C(F)(F)F)cc3F)cc2)n1` [Compound 32, 4-(3-fluoro-5-trifluromethyl-2-pyridinyloxy)phenyl-N-(2-ethyl-4-pyrimidinyl)acetamide] has a mortality at 400 ppm [1] of 100%, a mortality at 400 ppm [2] of 100% and a mortality at 24 µg/g [3] of 0%. The mortality at 400 ppm [4] was 100%, the mortality at 400 ppm [5] was 100% and the mortality at 400 ppm [6] was 100%. The mortality at 400 ppm [7] was 60%.

`CCCCCCCCC(C)C(=O)Nc1ccnc(CC)n1` (stereo not drawn) [Compound 33, N-(2-ethyl-4-pyrimidinyl)-2 methyldecamide] showed a mortality at 400 ppm [1] of 40%, a mortality at 400 ppm [2] of 0% and a mortality at 24 µg/g [3] of 0%. The mortality at 400 ppm [4] was 0%, the mortality at 400 ppm [5] was 80% and the mortality at 400 ppm [6] was 0%. For the same compound, the mortality at 400 ppm [7] was 20%.

Compound `CCCCCCCCCCCCCCCCCC(=O)Nc1ccnc(CC)n1` [Compound 34] has a mortality at 400 ppm [1] of 0%, a mortality at 400 ppm [2] of 0% and a mortality at 24 µg/g [3] of 0%. The mortality at 400 ppm [4] was 0%, the mortality at 400 ppm [5] was 0% and the mortality at 400 ppm [6] was 0%. It also gave a mortality at 400 ppm [7] of 20%.

For `CCc1nccc(NC(=O)Cc2ccc(OCC(F)(F)F)cn2)n1` [Compound 35, 5-(2,2,2-trifluoromethoxy)-2-pyridinyl-N-(2-ethyl-4-pyrimidinyl)acetamide], the mortality at 400 ppm [1] was 100%, the mortality at 400 ppm [2] was 100% and the mortality at 24 µg/g [3] was 100%. The mortality at 400 ppm [4] was 60%, the mortality at 400 ppm [5] was 100% and the mortality at 400 ppm [6] was 100%. For the same compound, the mortality at 400 ppm [7] was 80%.

For `CCc1nccc(NC(=O)Cc2ccc(Oc3ccc(S(C)(=O)=O)cn3)cc2)n1` [Compound 36, 4-(5-methylsulfonyl-2-pyridinyloxy)phenyl-N-(2-ethyl-4-pyrimidinyl)acetamide], the mortality at 400 ppm [1] was 0%, the mortality at 400 ppm [2] was 100% and the mortality at 24 µg/g [3] was 0%. For the same compound, the mortality at 400 ppm [4] was 100%, the mortality at 400 ppm [5] was 40% and the mortality at 400 ppm [6] was 100%. The mortality at 400 ppm [7] was 40%.

In the case of `CCc1nccc(NC(=O)Cc2ccc(Oc3ccc(Cl)cn3)cc2)n1` [Compound 37, 4-(5-chloro-2-pyridinyloxy)phenyl-N-(2-ethyl-4-pyrimidinyl)acetamide], the mortality at 400 ppm [1] is reported as 0%, the mortality at 400 ppm [2] is reported as 100% and the mortality at 24 µg/g [3] is reported as 0%. It also gave a mortality at 400 ppm [4] of 100%, a mortality at 400 ppm [5] of 0% and a mortality at 400 ppm [6] of 0%. For the same compound, the mortality at 400 ppm [7] was 100%.

Work on `COCc1nccc(NC(=O)Cc2ccc(OCC(F)(F)F)cc2)n1` [Compound 38, 4-(2,2,2-trifluroethoxy)phenyl-N-(2-(methoxymethyl)-4-pyrimidinyl)acetamide] yielded a mortality at 400 ppm [1] of 0%, a mortality at 400 ppm [2] of 0% and a mortality at 24 µg/g [3] of 0%. The mortality at 400 ppm [4] was 0%, the mortality at 400 ppm [5] was 0% and the mortality at 400 ppm [6] was 0%. For the same compound, the mortality at 400 ppm [7] was 0%.

For `COCc1nccc(NC(=O)Cc2ccc(Oc3ccc(F)cc3)cc2)n1` [Compound 39, 4-(4-fluorophenoxy)phenyl-N-(2-(methoxymethyl)-4-pyrimidinyl)acetamide], the mortality at 400 ppm [1] was 100%, the mortality at 400 ppm [2] was 100% and the mortality at 24 µg/g [3] was 0%. For the same compound, the mortality at 400 ppm [4] was 100%, the mortality at 400 ppm [5] was 100% and the mortality at 400 ppm [6] was 100%. For the same compound, the mortality at 400 ppm [7] was 100%.

In the case of `CC(C)c1nccc(NC(=O)Cc2ccc(Oc3ccc(C(F)(F)F)cc3)cc2)n1` [Compound 72, 4-(4-trifluoromethylphenoxy)phenyl-N-(2-(1-methylethyl)-4-pyrimidinyl)acetamide], the mortality at 400 ppm [1] is reported as 100%, the mortality at 400 ppm [2] is reported as 0% and the mortality at 24 µg/g [3] is reported as 100%. For the same compound, the mortality at 400 ppm [4] was 100%, the mortality at 400 ppm [5] was 100% and the mortality at 400 ppm [6] was 100%. The mortality at 400 ppm [7] was 100%.
